This is an account of results in paper PMC9373486, “Exploring in vitro anti-proliferative and anti-inflammatory activities of Prasachandaeng remedy, and its bioactive compounds” (BMC Complementary Medicine and Therapies, 2022).

Molecules are shown by their SMILES. In brackets after ≈: the same amount, converted by molar mass. Counter-ions that a name gives are not always drawn. Some results are limits rather than exact numbers.

Data set [1] has as its system hepatocarcinoma cell line (HepG2). The data set is described as follows: Cytotoxic activity, antiproliferative SRB assay, HepG2. In kind it is cell-based, human. The conditions noted are these: for IC50: Homo sapiens, HepG2, mean ± SEM, n = 3; for IC50 / Cytotoxicity against HepG2 (in words): SRB assay; for Selective index (SI), HepG2: IC50 of non-cancerous cells (HaCaT) / IC50 of HepG2. The protocol:
(§1) Hepatocellular carcinoma (HepG2; ATTC No. HB-8065) was cultured in Minimum Essential Media (MEM) supplemented with 10% heated-inactivated fetal bovine serum (FBS) and 1% penicillin–streptomycin (P/S). Cholangiocarcinoma cell line (KKU-M156) was cultured in HAM's F12 supplemented with 10% FBS, 1% P/S, and 12.5 mM HEPES. In addition, one non-cancerous human keratinocyte cell line (HaCaT; No. 300493-SF) was cultured in Dulbecco's Modified Eagle Medium (DMEM) supplemented with 10% FBS and 1% P/S [13].
(§2) This assay followed the previously described protocol. The various concentrations (1, 10, 50, and 100 µg/mL) of the crude extracts were investigated against two human cancer cell lines and one non-cancerous cell line. The cell lines were washed with PBS and the cells were detached with 0.025% trypsin–EDTA to make a single cell suspension. A 5 mL medium was then added to the flask to stop the trypsin–EDTA activity. The viable cells were counted by trypan blue exclusion in a haemocytometer. A single-cell suspensions density of HepG2, KKU-M156, and HaCaT were diluted with each medium to give optimal densities of 2 × 10^3, 3 × 10^3, and 8 × 10^3 cells/well, respectively. The 100 µL/well of these cell suspensions were seeded in 96-well plates and incubated at 37 °C with 5% CO2 at 95% humidity for 24 h. Then, 100 µL of a sample solution was added to each well. The control was the medium mixed with 2% DMSO. The 96-well plates were incubated at 37 °C with 5% CO2 at 95% humidity for 72 h. The mixture in the well was removed and washed with 200 µL fresh medium. The 96-well plate was further incubated for 72 h, then the cell in 96-well plates was fixed with 40%TCA and washed with water five times. Finally, the fixed cell in the 96-well plate was strained with Sulforhodamine B sodium salt and the percentage of inhibition of cell growth was measured colorimetrically using the SRB assay. The herbal extract and pure compounds were considered to have potent cytotoxicity if the IC50 values were ≤ 20 and ≤ 4 µg/mL, respectively. The % inhibition of cell growth was calculated by the equation shown below, and the IC50 values were calculated using the Prism program.
(§3) %Inhibitionofcellgrowth=MeanofODcontrol-MeanofODsample÷[…]×100 where: OD control = OD of medium with 2% of DMSO and OD sample = OD of crude extract.
(§4) SelectivityindexSI=IC50ofnon-cancerouscellline÷IC50ofcancercellline
(In general: The SRB assay estimates cell density from bound dye.)

The test system of data set [2] is cholangiocarcinoma cell line (KKU-M156). The data set is described as follows: Cytotoxic activity, antiproliferative SRB assay, KKU-M156. In kind it is cell-based, human. Conditions: for IC50: Homo sapiens, KKU-M156, mean ± SEM, n = 3; for IC50 / Cytotoxicity against KKU-M156 (in words): SRB assay; for Selective index (SI), KKU-M156: IC50 of non-cancerous cells (HaCaT) / IC50 of KKU-M156. The protocol:
as §1, §2, §3, §4

In data set [3] the test system is human keratinocyte cell line (HaCaT). The data set is described as follows: Cytotoxic activity, antiproliferative SRB assay, non-cancerous HaCaT. It is filed as cell-based. Conditions: mean ± SEM, n = 3. How it is done:
as §1, §2, §3

The subject of data set [4] is TNF-α production. The data set is described as follows: Inhibition of LPS-induced TNF-α production in RAW 264.7 (ELISA). In kind it is cell-based, murine. Conditions: Mus musculus, RAW264.7, LPS-induced RAW 264.7, n = 3. The protocol:
The tumor necrosis factor-alpha (TNF-α) is the principal mediator of inflammation in response to gram-negative bacteria. It is mainly produced by LPS-activated mononuclear phagocytes. The TNF- α ELISA can quantify TNF-α in the supernatant of cell culture medium. The assay was carried out using the TNF-alpha ELISA kit (Thermo Fisher® scientific, USA). The murine macrophage cell line (RAW 264.7) was cultured in DMEM medium containing 10% heat-inactivated FBS, 10^4 µg/mL P/S. Firstly, the viable cells were counted using trypan blue exclusion in a haemocytometer. The single cell suspension of murine macrophage cell line was diluted with the medium to provide an optimal density of 10^5. The cell suspension was seeded, in a 100 µL/well, in 96-well plates and incubated at 37 °C with 5% CO2 atmosphere at 95% humidity for 24 h. […] Then, the test sample was added and incubated for 24 h. The control included 2% DMSO solution mixed with the medium, in place of the test samples in the analyses. This protocol was followed according to TNF-α ELISA kit (Thermo Fisher® scientific, USA). […] The concentrations of TNF- α in the wells were measured with a microplate reader at 450 nm. The % inhibition of TNF-α production was calculated using the equation below, and the IC50 values were calculated using the Prism program. […]
In general terms: In an ELISA, binding on a coated surface is turned into a signal by an enzyme label.

Data set [5] is described as follows: %cytotoxicity reported with the TNF-α assay. It is filed as cell-based, murine. Conditions: mouse, RAW 264.7 cells, n = 3, read-out: [%cytotoxicity] at conc. 100 µg/mL (converted). How it is done:
Table 7 Anti-inflammatory on LPS-induced tumor necrosis factor-alpha production of D.cochinchinensis and PSD remedy | column: Inhibition of TNF-α production / %Inhibition and [%cytotoxicity] at conc. 100 µg/mL

As a reminder, the IC50 is the concentration that gives 50% inhibition. Higher therefore signals weaker potency. Take `COc1cc(OC)c(CCC(=O)c2ccc(O)cc2)c(OC)c1` [Compound 1, 1-(4-hydroxyphenyl)-3-(2,4,6-trimethoxyphenyl)propan-1-one]: in data set [1], inhibition was half-maximal at 20 ± 0.46 µg/mL (≈ 63.3 µM) (IC50); the “Selective index (SI), HepG2” value came to 4.3; the “Cytotoxicity against HepG2 (in words)” value is listed as “moderate cytotoxicity”. For the same compound, in data set [2], the IC50 worked out at 21.3 ± 3.17 µg/mL (≈ 67.2 µM); the “Selective index (SI), KKU-M156” value is 4.1; the “Cytotoxicity against KKU-M156 (in words)” value is listed as “moderate cytotoxicity”. The IC50 in data set [3] is 86.1 ± 2.13 µg/mL (≈ 272 µM).

As to `CC[C@]1(O)C[C@H]2CN(CCc3c([nH]c4ccccc34)[C@@](C(=O)OC)(c3cc4c(cc3OC)N(C=O)[C@H]3[C@@](O)(C(=O)OC)[C@H](OC(C)=O)[C@]5(CC)C=CCN6CC[C@]43[C@@H]65)C2)C1` [Vincristine sulfate, reference compound], the results for the IC50 in data set [1], in data set [2] and in data set [3] were 0.012 ± 0.0005 µg/mL, 0.0026 ± 0.001 µg/mL and 7e-06 µg/mL, respectively. For the same compound, the “Selective index (SI), HepG2” value in data set [1] amounted to 0.00058.

`COc1ccc(C[C@]2(O)COc3cc(O)cc(O)c3C2=O)cc1` [Compound 3, (3S)-3,5,7-trihydroxy-3-[(4-methoxyphenyl)methyl]-2H-chromen-4-one]: in data set [1], it took 25.8 ± 1.56 µg/mL (≈ 81.4 µM) to reach half-maximal inhibition (IC50); the “Selective index (SI), HepG2” value is recorded as 1.8; the “Cytotoxicity against HepG2 (in words)” value is recorded as “moderate cytotoxicity”. Besides, in data set [2], the IC50 was 7.12 ± 0.56 µg/mL (≈ 22.5 µM); the “Selective index (SI), KKU-M156” value came out at 6.5; the “Cytotoxicity against KKU-M156 (in words)” value is given as “moderate cytotoxicity”. The IC50 in data set [3] was 46.5 ± 0.88 µg/mL (≈ 147 µM).

As for `COc1ccc(CCC(=O)c2ccc(O)cc2)c(OC)c1` [Compound 2], in data set [1], the IC50 came to 20.7 ± 0.49 µg/mL (≈ 72.3 µM); the “Selective index (SI), HepG2” value came to 3.2; the “Cytotoxicity against HepG2 (in words)” value was “moderate cytotoxicity”. Moreover, in data set [2], half-maximal inhibition (IC50) required 33.2 ± 2.1 µg/mL (≈ 116 µM); the “Selective index (SI), KKU-M156” value was found to be 2.0; the “Cytotoxicity against KKU-M156 (in words)” value was “moderate cytotoxicity”. This compound showed an IC50 in data set [3] of 66 ± 0.68 µg/mL (≈ 231 µM).

Regarding `CC(=O)Nc1ccc(O)cc1` [Acetaminophen], in data set [4] (100 µg/mL, read-out: %Inhibition of TNF-α production at conc. 100 µg/mL), the inhibition at 100 µg/mL came to 18.7 ± 1.93%. Besides, in data set [4], the IC50 is greater than 100 µg/mL. Further, the cytotoxicity at 100 µg/mL in data set [5] was 59.2%.
